# Measurements: US20070265269A1, “Water Soluble Esters of [N-(4-Amino-2-Butynyl)] with Anticancer Activity” (priority 2004, published 2007)
# Legend:
# [1] = system: panel of human tumour cell lines; test: anti-cancer activity, tetrazolium-based proliferation assay (EZ4U kit) in a panel of tumour cell lines; conditions: result in words
# Description: For the following test the following cell lines have been used:
# Cell lines. Except indicated otherwise all cell lines were obtained from the American Type Culture Collection (ATCC, Rockville, Md.) and grown to confluent monolayers in RPMI-1640 bicarbonate medium (Seromed, Berlin, Germany) in a humidified incubator (5% CO2, 37° C.). Cells were checked for mycoplasma contamination. The medium was supplemented with 10% heat-inactivated fetal bovine serum (Seromed) and 4 mM glutamine. The cells were subcultured by trypsination (0.03% trypsin containing 0.02% EDTA, three times a week). Cell numbers were counted using a TOA Sysmex microcellcounter (TOA, Tokyo, Japan).
# Chemicals and solutions. Unless otherwise mentioned, all chemicals were obtained from Sigma (St. Louis, Mo.). Compounds to be tested were used as supplied. CHP was used as 5 mg/ml stock solution in PBS (phosphate buffered saline, Dulbecco) and aliquots were stored frozen at −20° C. Related compounds were used as 2 mg/ml stock solution and stored frozen at −20° C. […]
# Following incubation proliferation was measured using a tetrazolium-based assay (EZ4U kit, Biomedica, Vienna, Austria). Optical densities (OD) of the individual wells was determined with the help of an ELISA-Reader (all values done in triplicate) and the values obtained in medium controls set to 100% (OD490nm=0.5-1.5). […]
# [2] = system: Fibroblast (Flow 4000, lung fibroblasts); test: toxicity on normal cells, tetrazolium-based proliferation assay (EZ4U kit); type: cell-based; conditions: for % Inhibition of growth: concentration of 1:400, normal cells, Flow 4000 lung fibroblasts, 4 days incubation; for toxicity to fibroblasts: result in words
# Description: Cells were distributed to the wells of 96 well microtiter plates (10000 cells/well) in tissue culture medium (RPMI-1640 supplemented with 10% fetal bovine serum and 4 mM glutamine) and medium added for controls. Test compounds were added in the reported dilution steps and the plates incubated for 4 days under tissue culture conditions (37° C., 5% CO2).
# Following incubation proliferation was measured using a tetrazolium-based assay (EZ4U kit, Biomedica, Vienna, Austria). Optical densities (OD) of the individual wells was determined with the help of an ELISA-Reader (all values done in triplicate) and the values obtained in medium controls set to 100% (OD490nm=0.5-1.5).
# In addition the toxicity of a number of the esters of the invention have been tested on normal cells, Fibroblast (Flow 4000, lung fibroblasts).
Structure (SMILES),antitumor activity [1],% Inhibition of growth [2] [%],toxicity to fibroblasts [2]
"CC(=O)OCC#CCN1CCOCC1 [L2, N-(4-morpholino-2-butynyl)acetate]",highest antitumor activity,18,low toxicity to fibroblasts
"O=C(OCC#CCN1CCOCC1)c1ccccc1 [L4, N-(4-morpholino-2-butynyl)benzoate]",,34.2,
"O=COCC#CCN1CCOCC1 [L6, N-(4-morpholino-2-butynyl)formate]",,37.4,
"CCN(CC)CC#CCOC(C)=O [L9, N-[4-(N,N-diethylamino)-2-butynyl]acetate]",,5.4,
"CC(=O)OCC#CCN(c1ccccc1)c1ccccc1 [L12, N-[4-(N,N-diphenylamino)-2-butynyl]acetate]",,−7.6,
"CC(=O)OCC#CCN1CCSCC1 [L13, N-(4-thiomorpholino-2-butynyl)acetate]",,19,
"CCC(=O)OCC#CCN1CCOCC1 [L15, N-(4-morpholino-2-butynyl)propionate]",,13,
"CC(C)(C)C(=O)OCC#CCN1CCOCC1 [L18, N-(4-morpholino-2-butynyl)pivalate]",highest antitumor activity,7,low toxicity to fibroblasts
